The record followed here is patent US10941121B2 (AZIENDA OSPEDALIERA UNIVERSITARIA SENESE, priority 2015, dated 2021).

pEC50, pIC50: −log10 of the molar value. Like-named read-outs stand apart in the source and are kept apart here.

Data set [1] can be described thus: Cytotoxicity, MTT method in LUNET cells. It counts as cell-based. The following applies: human; MMT method in LUNET cells; read-out: CC50 (μM) non-infected cells. How it is done: Toxicity (CC50) was analysed in the Lunet/HuH7 cells by the addition of 10 μL of MTT (3-(4,5-dimethylthiazol-2-yl)-2,5-diphenyltetrazolium bromide) per well. After 4 h of incubation at 37° C. in a humidified atmosphere with 5% CO2, the amount of formazan produced was quantified spectrophotometrically at 550/620 nm (C. Pannecouque et al, Nature protocol 2008; 3 (3): 427-434). […] These assays were done in duplicate.
(In general: Formazan colour is commonly taken as a measure of viable cells.)

Data set [2] has as its target T1, DDX3 Helicase (Homo sapiens, UniProt O00571). The data set is described as follows: biochemical.
Data set [3] in a line: Cytotoxicity in the JEV cell culture system. Conditions: hamster.
Data set [4] concerns Hepatitis C Virus (HCV) replicon system. Description: HCV replicon system, luciferase method in LucUbiNeo-ET cells. The following applies: for EC50: Hepatitis C virus, 48 h, read-out: EC50 (μM) HCV replicon system. (In antiviral work, replicon cells carry a viral genome segment that copies itself.)
In a further data set the test system is JEV strain (NJ2008). Description: JEV infectious cell culture system, plaque formation assay in BHK-21 cells. Conditions: Japanese encephalitis virus, BHK-21, read-out: JEV EC50.
Data set [5] in a line: Parallel Artificial Membrane Permeability Assay (PAMPA). It counts as in vitro ADME. Here is the method: Parallel Artificial Membrane Permeability Assay (PAMPA). Donor solution (0.5 mM) was prepared by diluting 1 mM dimethylsulfoxide (DMSO) compound stock solution using phosphate buffer (pH 7.4, 0.025 M). Filters were coated with 5 μL of a 1% (w/v) dodecane solution of phosphatidylcholine prepared from CHCl3 solution 10% w/v, for intestinal permeability. Donor solution (150 μL) was added to each well of the filter plate. To each well of the acceptor plate were added […] (50% DMSO in phosphate buffer). All compounds were tested in three different plates on different days. The sandwich was incubated for 5 h at room temperature under gentle shaking. After the incubation time, the plates were separated, and samples were taken from both receiver and donor sides and analyzed using LC with UV detection at 280 nm.
LC analysis were performed with a Varian Prostar HPLC system (Varian Analytical Instruments, USA) equipped with a binary pump with a manual injection valve and model Prostar 325 UV-VIS Detector.
Permeability (Papp) for PAMPA was calculated according to the following equation, obtained from Wohnsland and Faller and Sugano et al. equation with some modification in order to obtain permeability values in cm s^−1,
where VA is the volume in the acceptor well, VD is the volume in the donor well (cm^3), A is the “effective area” of the membrane (cm^2), t is the incubation time (s) and r the ratio between drug concentration in the acceptor and equilibrium concentration of the drug in the total volume (VD+VA). Drug concentration is estimated by using the peak area integration.
Membrane retentions (%) were calculated according to the following equation: […]
where r is the ratio between drug concentration in the acceptor and equilibrium concentration, D, A, and Eq represented drug concentration in the donor, acceptor and equilibrium solution, respectively.
In general terms: The PAMPA barrier holds no transporters, so it reflects passive diffusion.

A further data set can be described thus: Water Solubility Assay. The class given is physicochemical. The following applies: thermodynamic from solid. Here is the method: Water Solubility Assay. Each solid compound (1 mg) was added to 1 mL of water. The samples were shaked in a shaker bath at room temperature for 24-36 h. The suspensions were filtered through a 0.45 μm nylon filter (Acrodisc), and the solubilized compound determined by LC-MS-MS assay. For each compound the determination was performed in triplicate.
For the quantification was used an LC-MS system consisted of a Varian apparatus (Varian Inc) including a vacuum solvent degassing unit, two pumps (212-LC), a Triple Quadrupole MSD (Mod. 320-LC) mass spectrometer with ES interface and Varian MS Workstation System Control Vers. 6.9 software. […] The flow rate was 0.2 mL min^−1 and injection volume was 5 μL. The instrument operated in positive mode and parameters were: detector 1850 V, drying gas pressure 25.0 psi, desolvation temperature 300.0° C., nebulizing gas 40.0 psi, needle 5000 V and shield 600 V. Nitrogen was used as nebulizer gas and drying gas. Collision induced dissociation was performed using Argon as the collision gas at a pressure of 1.8 mTorr in the collision cell.

The target of data set [6] is T1, DDX3 Helicase. Conditions: for DDX3 helicase activity compared with EI01D: in words; for IC50: read-out: ID50 (μM) against DDX3 Helicase, n.a. = compound not active.
In data set [7] the test system is HIV-1 wild-type reference strain NL4-3. The data set is described as follows: HIV-1 phenotypic assay, MT-2 cells then TZM-bl cells, luciferase. The class given is cell-based. The following applies: Human immunodeficiency virus 1, NL43; first cycle in MT-2 cells, additional round in TZM-bl cells.
Data set [8] relates to EBOV expressing GFP (EBOV/GFP). It counts as cell-based, Ebola virus.
Data set [9] in a line: Cytotoxicity in Huh7 cells, nuclei counts. The following applies: human.
Data set [10] in a line: Cytotoxicity in PBMC, CellTiter 96 MTS viability assay. The class given is cell-based. Conditions: human, human primary PBMCs.
The subject of another data set is HIV (PBMC). The data set is described as follows: HIV infectious cell culture system in PBMC, HIV-1 RNA in supernatant. The following applies: Human immunodeficiency virus 1, PBMC, 72 h, read-out: EC50 HIV (PBMC) 72 h.

T1 sequence (O00571 whole entry): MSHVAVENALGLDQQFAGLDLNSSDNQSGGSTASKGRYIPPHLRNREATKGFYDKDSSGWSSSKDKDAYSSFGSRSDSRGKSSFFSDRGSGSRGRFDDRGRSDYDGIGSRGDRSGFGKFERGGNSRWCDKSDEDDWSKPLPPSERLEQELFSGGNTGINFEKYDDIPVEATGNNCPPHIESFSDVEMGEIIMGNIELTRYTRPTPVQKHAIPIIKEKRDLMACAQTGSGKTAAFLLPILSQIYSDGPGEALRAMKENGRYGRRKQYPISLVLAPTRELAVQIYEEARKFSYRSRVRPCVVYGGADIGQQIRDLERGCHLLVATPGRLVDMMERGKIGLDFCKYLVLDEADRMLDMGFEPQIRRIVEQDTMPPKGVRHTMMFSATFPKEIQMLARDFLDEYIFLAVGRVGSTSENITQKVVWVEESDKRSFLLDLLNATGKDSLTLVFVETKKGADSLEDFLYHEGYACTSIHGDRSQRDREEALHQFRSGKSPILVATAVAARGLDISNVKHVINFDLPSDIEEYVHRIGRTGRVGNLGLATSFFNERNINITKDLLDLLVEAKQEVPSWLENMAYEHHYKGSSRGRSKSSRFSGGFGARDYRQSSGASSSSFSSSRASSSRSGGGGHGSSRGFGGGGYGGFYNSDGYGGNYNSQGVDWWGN

As usually defined, the CC50 is the concentration giving 50% cytotoxicity. For orientation: pIC50 means the negative decadic logarithm of the IC50, by convention in mol/L. The term EC50 denotes the concentration that produces a half-maximal response. One may read the pEC50 as −log10 of the EC50, conventionally taken in molar units. In the case of `CCOCc1cn(-c2ccc(NC(=O)Nc3ccccc3C)cc2)nn1` [Compound 20e], the CC50 in data set [1] is 51.8 µM; in data set [3] it was above 50 µM. Further, the negative-log IC50 (pIC50) against DDX3 Helicase [2] is 6.03. In [4], the EC50 came to 8.55 µM. Further, the pEC50 in the data set with JEV strain (NJ2008) was 4.60.

As to `CC(C)CCc1cn(-c2ccc(NC(=O)Nc3ccccc3C(F)(F)F)cc2)nn1` [Compound 22b, 1-(4-(4-isopentyl-1H-1,2,3-triazol-1-yl)phenyl)-3-(2-(trifluoromethyl)phenyl)urea], the 50% cytotoxic concentration (CC50) in data set [1] amounted to 46.8 µM. Also, the Papp at 5 h, 0.5 mM in data set [5] (PAMPA, phosphatidylcholine in dodecane, pH 7.4, 5 h, room temperature, read-out: PAMPA Papp *10^−6 (cm/s) GI) is 7.41 ×10⁻⁶ cm/s. In data set [5] (value in brackets in the PAMPA cell), the “PAMPA membrane retention (RM %)” value is 24.8%. In addition, the solubility in “Water Solubility Assay” (experimental aqueous solubility, read-out: LogS (converted)) was below 2.51 nM. In “Water Solubility Assay” (room temperature, 24-36 h, read-out: Aq. Solub.), the solubility is 2 ng/mL. Also, at DDX3 Helicase [6], the “DDX3 helicase activity compared with EI01D” value is “approximately ten-fold more active”. The same compound showed a pIC50 against DDX3 Helicase [2] of 6.77. Further, in [4], the “activity against HCV, in words” value is “best activity” and the 50% effective concentration (EC50) turned out to be 0.67 µM.

In the case of `CCCCn1nnc(-c2ccc(NC(=O)Nc3ccccc3C(F)(F)F)cc2)n1` [Compound 51, 1-(4-(2-butyl-2H-tetrazol-5-yl)phenyl)-3-(2-(trifluoromethyl)phenyl)urea], the CC50 in [1] is 6.7 µM. In addition, the pEC50 in data set [7] was 5.26. Further, in data set [8], the “Normalized % infected cells” value is reported as 60% and the “effect on EBOV replication, in words” value is reported as “able to affect EBOV replication”. The pIC50 at DDX3 Helicase [2] is 6.10. In addition, the 50% effective concentration (EC50) in data set [4] was determined as 0.6 µM.

With `CC(C)CCc1cn(-c2ccc(NC(=O)Nc3cccc(F)c3)cc2)nn1` [Compound 55b, 1-(3-fluorophenyl)-3-(4-(4-isopentyl-1H-1,2,3-triazol-1-yl)phenyl)urea], the half-maximal cytotoxic concentration (CC50) in data set [1] amounted to 183 µM. In data set [7], this compound showed a pEC50 of 5.74. Moreover, at DDX3 Helicase [6], the “DDX3 helicase activity compared with EI01D” value is “approximately ten-fold more active” and the IC50 turned out to be 0.2 µM. For the same compound, in data set [4], the “activity against HCV, in words” value is reported as “best activity” and the EC50 was 0.2 µM.

With `CCOCc1cn(-c2ccc(NC(=O)Nc3cc(C(C)C)ccc3C)cc2)nn1` [Compound 55e, 1-(4-(4-(ethoxymethyl)-1H-1,2,3-triazol-1-yl)phenyl)-3-(5-isopropyl-2-methylphenyl) urea], the CC50 was 245 µM in data set [1] and above 50 µM in [3]. Further, the pIC50 against DDX3 Helicase [2] is 6.05. For the same compound, the half-maximal effective concentration (EC50) in data set [4] is 1 µM. The pEC50 with JEV strain (NJ2008) was 5.48.

Consider `CC(C)CCc1cn(-c2ccc(NC(=O)Nc3cccc4cnccc34)cc2)nn1` [Compound 55f, 1-(4-(4-isopentyl-1H-1,2,3-triazol-1-yl)phenyl)-3-(isoquinolin-5-yl)urea], for which the figures for the CC50 in data set [1] and in [3] were above 312 µM and above 50 µM, respectively. Moreover, the pIC50 on DDX3 Helicase [2] is 6.30. Further, the EC50 in data set [4] worked out at 0.9 µM. For the same compound, the pEC50 in the data set on JEV strain (NJ2008) was 4.48.

In [7], `CCCCc1cn(-c2ccc(NC(=O)Nc3cc(OC4CCCC4)ccc3C)cc2)nn1` [Compound 55h, 1-(4-(4-butyl-1H-1,2,3-triazol-1-yl)phenyl)-3-(5-(cyclopentyloxy)-2-methylphenyl)urea] had a pEC50 of 4.79. This compound had a pIC50 against DDX3 Helicase [2] of 7.00.

Turning to `CCOCc1cn(-c2ccc(NC(=O)Nc3cccc(F)c3)cc2)nn1` [Compound 55o, 1-(4-(4-(ethoxymethyl)-1H-1,2,3-triazol-1-yl)phenyl)-3-(3-fluorophenyl)urea], in [7], the pEC50 is 4.67.

For `O=[N+]([O-])c1cccc(S(=O)(=O)Nc2ccccc2O)c1` [Compound 58a, N-(2-hydroxy)-3-nitro-phenylbenzenesulfonamide], the results for the CC50 in [1] and in data set [3] were 215 µM and above 50 µM, respectively. The results for the negative-log EC50 (pEC50) (in data set [7]; with JEV strain (NJ2008)) were 4.69 and 5.00, respectively. Also, on DDX3 Helicase [2], the pIC50 is 6.43. Also, the 50% cytotoxic concentration (CC50) at 48 h in data set [9] (DENV CC50, Huh7 cells, DENV experiment) was 99.4 µM; in data set [9] (WNV CC50, Huh7 cells, WNV experiment), 60.9 µM. Also, the EC50 in data set [4] was found to be 204 µM.

For the compound `CCOCc1cn(-c2cccc(S(=O)(=O)Nc3ccccc3C(F)(F)F)c2)nn1` [Compound 66d, 3-(4-(ethoxymethyl)-1H-1,2,3-triazol-1-yl)-N-(2-(trifluoromethyl)phenyl) benzenesulfonamide], the figures for the half-maximal cytotoxic concentration (CC50) in data set [1] and in data set [3] were 58.6 µM and above 50 µM, respectively. Besides, the midpoint of cytotoxicity in data set [10] (24 h), the CC50 at 24 h, lay at 450 µM. Also, half-maximal cytotoxicity in data set [10] (48 h) (CC50 at 48 h) was put at 357 µM. The compound further displayed a CC50 at 72 h in [10] (72 h) of 703 µM. Further, the “Normalized % infected cells” value in data set [8] was 80%. Moreover, the “effect on EBOV replication, in words” value in [8] was “able to affect EBOV replication”. On DDX3 Helicase [6], the IC50 worked out at 0.4 µM. For the same compound, the 50% effective concentration (EC50) in data set [4] was above 58.6 µM. The pEC50 is 4.59 with HIV (PBMC) and 5.21 in the data set on JEV strain (NJ2008).

With `COc1cc(NC(=O)Nc2ccccc2C(F)(F)F)ccc1-n1cc(CCC(C)C)nn1` [Compound 80, 1-(4-(4-isopentyl-1H-1,2,3-triazol-1-yl)-3-methoxyphenyl)-3-(2-(trifluoromethyl)phenyl)urea], the pEC50 in [7] was 5.13. Moreover, the negative-log IC50 (pIC50) against DDX3 Helicase [2] is 6.40.

`CC(C)CCc1cn(-c2ccc(NC(=O)Nc3ccccc3C(F)(F)F)cn2)nn1` [Compound 86, 1-(6-(4-isopentyl-1H-1,2,3-triazol-1-yl)pyridin-3-yl)-3-(2-(trifluoromethyl)phenyl)urea] showed a negative logarithm of the EC50 (pEC50) in data set [7] of 5.52. At DDX3 Helicase [2], this compound had a pIC50 of 6.00.

As for `CCCCc1cc(-c2ccc(NC(=O)Nc3ccccc3C(F)(F)F)cc2)no1` [Compound 102, 1-(4-(5-butylisoxazol-3-yl)phenyl)-3-(2-(trifluoromethyl)phenyl)urea], the pEC50 in data set [7] is 4.14.

In turn, `CCCCc1nc(-c2ccc(NC(=O)Nc3ccccc3C(F)(F)F)cc2)no1` [Compound 106, 1-(4-(5-butyl-1,2,4-oxadiazol-3-yl)phenyl)-3-(2-(trifluoromethyl)phenyl)urea] gave a pEC50 in [7] of 5.66. The pIC50 at DDX3 Helicase [2] was 7.00.

Turning to `CCCCc1nnc(-c2ccc(NC(=O)Nc3ccccc3C(F)(F)F)cc2)o1` [Compound 112, 1-(4-(5-butyl-1,3,4-oxadiazol-2-yl)phenyl)-3-(2-(trifluoromethyl)phenyl)urea], the pEC50 in data set [7] was 5.26. For the same compound, the pIC50 at DDX3 Helicase [2] is 6.00.

`CCCCc1nc(-c2cccc(S(=O)(=O)Nc3ccccc3C(F)(F)F)c2)no1` [Compound 134, 3-(5-butyl-1,2,4-oxadiazol-3-yl)-N-(2-(trifluoromethyl)phenyl)benzenesulfonamide] had a pEC50 in [7] of 5.51. The pIC50 at DDX3 Helicase [2] was 6.00.
